Values joined by “and” are separate entries in the source; they are usually repeats but may differ in a detail not shown here. Equal values may be shown once.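 All cell lines were grown in 96-well plates and treated with compound for 48 hours. At the GI50, growth is halved. TGI marks complete inhibition of growth.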
Columns and labels:
Assay in all cases: NCI anticancer screen, dose series, 48 h
A549 NSCLC = system: A549 NSCLC
DU-145 prostate = system: DU-145 prostate
HCT-15 colon = system: HCT-15 colon
HT29 colon = system: HT29 colon
KM12 colon = system: KM12 colon
NCI/ADR-RES ovarian = system: NCI/ADR-RES ovarian
OVCAR-5 ovarian = system: OVCAR-5 ovarian
RXF 393 renal = system: RXF 393 renal
SF-268 CNS = system: SF-268 CNS
T-47D breast = system: T-47D breast

CCN(CC)c1c(-c2ccccc2)n[nH]c1C(=O)OC
GI50 (A549 NSCLC): 31.6 µM | TGI (A549 NSCLC): > 100 µM | GI50 (DU-145 prostate): 36.9 µM | TGI (DU-145 prostate): > 100 µM | GI50 (HCT-15 colon): 19 µM | TGI (HCT-15 colon): 40.9 µM | GI50 (HT29 colon): 19.4 µM | TGI (HT29 colon): 33.5 µM | GI50 (KM12 colon): 17.8 µM | TGI (KM12 colon): 47 µM | GI50 (NCI/ADR-RES ovarian): 19.2 µM | TGI (NCI/ADR-RES ovarian): 37.4 µM | GI50 (OVCAR-5 ovarian): 31 µM | TGI (OVCAR-5 ovarian): > 100 µM | GI50 (RXF 393 renal): 21.9 µM | TGI (RXF 393 renal): 56.9 µM | GI50 (SF-268 CNS): 22.9 µM | TGI (SF-268 CNS): 59.7 µM | GI50 (T-47D breast): 17.5 µM | TGI (T-47D breast): 64.8 µM

CS(=O)(=O)Nc1cc(-c2ccc3ncnc(Nc4ccc(F)c(Cl)c4)c3c2)cnc1Cl
GI50 (A549 NSCLC): 1.14 µM and 1.26 µM | TGI (A549 NSCLC): 4.67 µM and 5.81 µM | GI50 (DU-145 prostate): 0.738 µM and 0.766 µM | TGI (DU-145 prostate): 11.1 µM and 13.6 µM | GI50 (HCT-15 colon): 0.559 µM and 0.542 µM | TGI (HCT-15 colon): 11.2 µM and 11.6 µM | GI50 (HT29 colon): 0.369 µM and 0.503 µM | TGI (HT29 colon): 6.82 µM and 7.81 µM | GI50 (KM12 colon): 1.24 µM and 1.71 µM | TGI (KM12 colon): 3.39 µM and 8.13 µM | GI50 (NCI/ADR-RES ovarian): 2.06 µM and 2.07 µM | TGI (NCI/ADR-RES ovarian): 30.5 µM and 20 µM | GI50 (OVCAR-5 ovarian): 0.214 µM and 0.533 µM | TGI (OVCAR-5 ovarian): 4.93 µM and 8.78 µM | GI50 (RXF 393 renal): 0.563 µM and 0.31 µM | TGI (RXF 393 renal): 4.07 µM and 1.71 µM | GI50 (SF-268 CNS): 0.51 µM and 0.675 µM | TGI (SF-268 CNS): 8.05 µM and 20.1 µM | GI50 (T-47D breast): 0.0323 µM and 0.0901 µM | TGI (T-47D breast): 0.437 µM and 0.892 µM

CC(C)(C)OC(=O)NCCCCn1c2c(c3ccccc3c1=O)C(=O)c1ccccc1-2
GI50 (A549 NSCLC): 17.6 µM | TGI (A549 NSCLC): 44.5 µM | GI50 (DU-145 prostate): 9.59 µM | TGI (DU-145 prostate): > 100 µM | GI50 (HCT-15 colon): 35.3 µM | TGI (HCT-15 colon): > 100 µM | GI50 (HT29 colon): 32.4 µM | TGI (HT29 colon): > 100 µM | GI50 (KM12 colon): 28.9 µM | TGI (KM12 colon): > 100 µM | GI50 (NCI/ADR-RES ovarian): 15.7 µM | TGI (NCI/ADR-RES ovarian): 45.7 µM | GI50 (OVCAR-5 ovarian): 44.7 µM | TGI (OVCAR-5 ovarian): > 100 µM | GI50 (RXF 393 renal): 23.1 µM | TGI (RXF 393 renal): > 100 µM | GI50 (SF-268 CNS): 20.9 µM | TGI (SF-268 CNS): > 100 µM | GI50 (T-47D breast): 21.9 µM | TGI (T-47D breast): 79.8 µM

c1ccc(CN2CCc3[nH]c4ccccc4c3C2)cc1
TGI (A549 NSCLC): > 79.8 µM | TGI (DU-145 prostate): 78.3 µM | TGI (HCT-15 colon): 62.6 µM | TGI (HT29 colon): 36.4 µM | TGI (KM12 colon): 45.9 µM | TGI (NCI/ADR-RES ovarian): > 63.3 µM | TGI (OVCAR-5 ovarian): > 96.3 µM | TGI (RXF 393 renal): > 100 µM | TGI (SF-268 CNS): > 86.8 µM | TGI (T-47D breast): 47.2 µM

COCCOCCOCc1n(Cc2ccc3ccccc3c2)c2ccccc2[n+]1Cc1ccc2ccccc2c1
GI50 (A549 NSCLC): 1.33 µM | TGI (A549 NSCLC): 3.84 µM | GI50 (DU-145 prostate): 0.766 µM | TGI (DU-145 prostate): 2.14 µM | GI50 (HCT-15 colon): 1.69 µM | TGI (HCT-15 colon): 3.36 µM | GI50 (HT29 colon): 0.321 µM | TGI (HT29 colon): 1.34 µM | GI50 (KM12 colon): 0.352 µM | TGI (KM12 colon): 1.29 µM | GI50 (NCI/ADR-RES ovarian): 15.1 µM | TGI (NCI/ADR-RES ovarian): 44.3 µM | GI50 (OVCAR-5 ovarian): 0.927 µM | TGI (OVCAR-5 ovarian): 2.26 µM | GI50 (RXF 393 renal): 0.318 µM | TGI (RXF 393 renal): 1.58 µM | GI50 (SF-268 CNS): 0.442 µM | TGI (SF-268 CNS): 1.68 µM | GI50 (T-47D breast): 0.216 µM | TGI (T-47D breast): 1.12 µM
